The source of these data is patent US20090156575A1, “NOVEL DIAZASPIROALKANES AND THEIR USE FOR TREATMENT OF CCR8 MEDIATED DISEASES” (priority 2005, published 2009).

Counter-ions that a name gives are not always drawn.

T1 sequence (P51685 whole entry): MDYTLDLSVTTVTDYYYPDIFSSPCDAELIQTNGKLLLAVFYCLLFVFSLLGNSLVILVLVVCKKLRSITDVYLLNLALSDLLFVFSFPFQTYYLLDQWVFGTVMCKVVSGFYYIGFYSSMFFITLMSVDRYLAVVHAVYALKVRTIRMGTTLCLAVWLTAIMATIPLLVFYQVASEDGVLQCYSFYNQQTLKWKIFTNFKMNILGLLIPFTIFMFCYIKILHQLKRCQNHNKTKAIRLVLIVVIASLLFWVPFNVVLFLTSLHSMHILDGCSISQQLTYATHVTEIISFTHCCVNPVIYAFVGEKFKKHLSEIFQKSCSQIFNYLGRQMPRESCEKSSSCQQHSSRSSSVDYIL

The first test concerns the target T1, human recombinant chemokine CCR8 receptor (Homo sapiens, UniProt P51685).
T1 construct: purchased Euroscreen ES-136-M; host or cells: CHO-K1 cells (transfected), membrane preparation
Briefly: CCL1 SPA binding assay. To be noted: IC50 (nM), membranes from CHO-K1 cells transfected with human CCR8; 125I CCL1 displacement, SPA beads. As for the experimental part:
Membranes from CHO-K1 cells transfected with human recombinant chemokine CCR8 receptor (ES-136-M) were purchased from Euroscreen. Membrane preparations are stored at −70 C in 7.5 mM Tris-Cl pH 7.5, 12.5 mM MgCl2, 0.3 mM EDTA, 1 mM EGTA, 250 mM sucrose until used.
The CCR8 membranes (50.6 mg/ml) were preincubated with Wheat Germ Agglutinin SPA beads (4.05 mg/ml) in assay buffer (50 mM HEPES, 1 mM CaCl2×2H2O, 5 mM MgCl2×6H2O, 75 mM NaCl, 0.1% BSA) at pH=7.4 for 2 hours on ice. A […] dose-response curve (final concentrations 50 μM, 16.7 μM, 5.6 μM, 1.9 μM, 0.62 μM, 0.21 μM, 0.069 μM, 0.023 μM) was prepared by diluting compounds by serial dilution 1:3 in DMSO. In the screening plate (Polystyrene NBS plates, Costar Corning 3604) 1 μl from the DMSO solutions of compounds was transferred into each well. 1 μl of DMSO was added to the blank control wells and 1 μl unlabeled CCL1 (300 nM) was added to background control wells. 50 μl of the SPA bead-membrane mixture was added into each well. Finally, 50 μl ([…]) ^125I CCL1 (2000 Ci/mM) was added to each well. Plates were then incubated at RT with shaking (700 rpm) for 90 minutes followed by 30 minutes at RT without shaking. The plate was read in a Wallac MicroBeta counter for 2 minutes/well.
In the case of `CC1(C)Cc2c(CN3CCC4(CC3)CCN(C(=O)c3ccc(N)cn3)CC4)cccc2O1` [Example 86, 6-({9-[(2,2-dimethyl-2,3-dihydro-1-benzofuran-4-yl)methyl]-3,9-diazaspiro[5.5]undec-3-yl}carbonyl)pyridin-3-amine Trifluoroacetate], the IC50 is 8 nM.

The test is the same for the next values; noted with them: membranes from CHO-K1 cells transfected with human CCR8; 125I CCL1 displacement, SPA beads; read-out: IC50.
In the case of `CC1(C)Cc2cccc(CN3CCC4(CC3)CCN(C(=O)c3ccncc3)CC4)c2O1` [Example 1, 3-[(2,2-dimethyl-2,3-dihydro-1-benzofuran-7-yl)methyl]-9-isonicotinoyl-3,9-diazaspiro[5.5]undecane Trifluoroacetate], the IC50 was determined as 12 nM. On to `COC(=O)Cc1ccccc1C(=O)N1CCC2(CCN(Cc3cccc4c3OC(C)(C)C4)CC2)CC1` [Example 5, Methyl [2-({9-[(2,2-dimethyl-2,3-dihydro-1-benzofuran-7-yl)methyl]-3,9-diazaspiro[5.5]undec-3-yl}carbonyl)phenyl]acetate], for which the half-inhibitory concentration (IC50) is 9 nM. Take `CC1(C)Cc2cccc(CN3CCC4(CC3)CCN(C(=O)c3ccccc3CC(=O)N3CCC[C@@H]3C(N)=O)CC4)c2O1` [Example 18, 1-{[2-({9-[(2,2-dimethyl-2,3-dihydro-1-benzofuran-7-yl)methyl]-3,9-diazaspiro[5.5]undec-3-yl}carbonyl)phenyl]acetyl}-D-prolinamide]: the IC50 is 57 nM. Regarding `CC1(C)Cc2cccc(CN3CCC4(CC3)CCN(C(=O)c3ccno3)CC4)c2O1` [Example 31, 3-[(2,2-dimethyl-2,3-dihydro-1-benzofuran-7-yl)methyl]-9-(isoxazol-5-ylcarbonyl)-3,9-diazaspiro[5.5]undecane Trifluoroacetate], the IC50 is 10 nM. Turning to `CC1(C)Cc2cccc(CN3CCC4(CC3)CCN(C(=O)c3ccccc3NC(=O)C3CCCO3)CC4)c2O1` (stereo not shown) [Example 49, N-[2-({9-[(2,2-dimethyl-2,3-dihydro-1-benzofuran-7-yl)methyl]-3,9-diazaspiro[5.5]undec-3-yl}carbonyl)phenyl]tetrahydrofuran-2-carboxamide], the IC50 was found to be 38 nM. Take `CC1(C)Cc2cccc(CN3CCC4(CC3)CCN(C(=O)c3cccc5c3NC(=O)C5=O)CC4)c2O1` [Example 63, 7-({9-[(2,2-dimethyl-2,3-dihydro-1-benzofuran-7-yl)methyl]-3,9-diazaspiro[5.5]undec-3-yl}carbonyl)-1H-indole-2,3-dione Trifluoroacetate]: the half-maximal inhibitory concentration (IC50) worked out at 143 nM. For `CC1(C)Cc2cccc(CN3CCC4(CC3)CCN(C(=O)c3ccc5cc[nH]c5c3)CC4)c2O1` [Example 68, 3-[(2,2-dimethyl-2,3-dihydro-1-benzofuran-7-yl)methyl]-9-(1H-indol-6-ylcarbonyl)-3,9-diazaspiro[5.5]undecane Acetate], the concentration for half-maximal inhibition (IC50) amounted to 8 nM. `CC1(C)Oc2cccc(CN3CCC4(CC3)CCN(C(=O)c3ncccc3N)CC4)c2O1` [Example 92, 2-({9-[(2,2-dimethyl-1,3-benzodioxol-4-yl)methyl]-3,9-diazaspiro[5.5]undec-3-yl}carbonyl)pyridin-3-amine]: the IC50 is 23 nM.

With `CC1(C)COc2c(CN3CCC4(CC3)CCN(C(=O)c3ccncc3)CC4)cccc2O1` [Example 110, 3-[(2,2-dimethyl-2,3-dihydro-1,4-benzodioxin-5-yl)methyl]-9-isonicotinoyl-3,9-diazaspiro[5.5]undecane Trifluoroacetate], the half-inhibitory concentration (IC50) was 53 nM. Still for that read-out and setting: to `CC1(C)Cc2cccc(CN3CCC4(CC3)CCN(C(=O)CCc3nc(-c5ccccn5)no3)CC4)c2O1` [Example 111, 3-[(2,2-dimethyl-2,3-dihydro-1-benzofuran-7-yl)methyl]-9-[3-(3-pyridin-2-yl-1,2,4-oxadiazol-5-yl)propanoyl]-3,9-diazaspiro[5.5]undecane] belongs 104 nM; to `CC1(C)Cc2c(CN3CCC4(CC3)CCN(C(=O)c3ccnc(N)n3)CC4)cccc2O1` [Example 124, 4-({9-[(2,2-dimethyl-2,3-dihydro-1-benzofuran-4-yl)methyl]-3,9-diazaspiro[5.5]undec-3-yl}carbonyl)pyrimidin-2-amine], 12 nM; to `CC1(C)Oc2cccc(CN3CCC4(CC3)CCN(C(=O)c3ccc(N)[nH]c3=O)CC4)c2O1` [Example 133, 6-amino-3-({9-[(2,2-dimethyl-1,3-benzodioxol-4-yl)methyl]-3,9-diazaspiro[5.5]undec-3-yl}carbonyl)pyridin-2(1H)-one], 84 nM. Still for that read-out and setting: to `CC1(C)C=Cc2cccc(CN3CCC4(CC3)CN(C(=O)c3ccncc3)C4)c2O1` [Example 139, 7-[(2,2-dimethyl-2H-chromen-8-yl)methyl]-2-isonicotinoyl-2,7-diazaspiro[3.5]nonane] belongs 70 nM; to `CC1(C)COc2cccc(CN3CCC4(CC3)CCN(C(=O)c3ccncc3CC(N)=O)CC4)c2O1` [Example 143, 2-[4-({9-[(3,3-dimethyl-2,3-dihydro-1,4-benzodioxin-5-yl)methyl]-3,9-diazaspiro[5.5]undec-3-yl}carbonyl)pyridin-3-yl]acetamide Ditrifluoroacetate], 32 nM; to `CC1(C)Cc2c(CN3CCC4(CC3)CN(C(=O)c3ccnc(N)n3)C4)cccc2O1` [Example 157, 4-({7-[(2,2-dimethyl-2,3-dihydro-1-benzofuran-4-yl)methyl]-2,7-diazaspiro[3.5]non-2-yl}carbonyl)pyrimidin-2-amine], 50 nM.

Regarding `CC1(C)Cc2c(CN3CCC4(CC3)CCN(C(=O)c3ccncc3CC(N)=O)CC4)cccc2O1` [Example 159, 2-[4-({9-[(2,2-dimethyl-2,3-dihydro-1-benzofuran-4-yl)methyl]-3,9-diazaspiro[5.5]undec-3-yl}carbonyl)pyridin-3-yl]acetamide], the IC50 was 87 nM.

For `CC1(C)COc2c(CN3CCC4(CC3)CCN(C(=O)c3ccc(N)cn3)CC4)cccc2O1` [Example 173, 6-({9-[(2,2-dimethyl-2,3-dihydro-1,4-benzodioxin-5-yl)methyl]-3,9-diazaspiro[5.5]undec-3-yl}carbonyl)pyridin-3-amine Trifluoroacetate], the IC50 came to 21 nM. Take `COC(=O)Cc1ccccc1C(=O)N1CCC2(CCN(Cc3cccc4c3OC(C)(C)C4)CC2)CC1` [Example 181, Methyl [2-({9-[(2,2-dimethyl-2,3-dihydro-1-benzofuran-7-yl)methyl]-3,9-diazaspiro[5.5]undec-3-yl}carbonyl)phenyl]acetate]: the 50% inhibitory concentration (IC50) is 72 nM.
